“Also recorded” adds a separate entry of the source. Where two headings read alike, the source gives them in different places.
Key:
[1] = test system: human B-52 NSCL cancer model, xenografted in nude mice; test: 2nd experiment: B-52 NSCL cancer xenograft in nude mice, epothilone with Iloprost and/or O-acetyl salicylic acid; settings: Iloprost 0.2 mg/kg i.v. days 22-26, O-acetyl salicylic acid 60 mg/kg p.o. days 19-29; for effect on tumor growth (tumor area): 2nd experiment (FIG. 1), epothilone 8 mg/kg i.v. once day 24
Method: (§1) B-52 NSCL tumor pieces obtained from in vivo passage, were implanted s.c. in the inguinal region of female nude mice. Treatment was started when the tumors were approximately 25 mm^2 in size. Tumor area was determined by caliper measurements twice weekly.
The 2nd Experiment was made to evaluate in a human B-52 NSCL cancer model, xenografted in nude mice the effect of: • Iloprost and O-acetyl salicyclic acid alone, • the combination of Iloprost and epothilone, • the combination of O-acetyl salicyclic acid and epothilone, • the combination of Iloprost and O-acetyl salicyclic acid as well as • the combination of Iloprost, O-acetyl salicyclic acid and epothilone.
The study was designed to determine the response of a lung cancer model to a cytotoxic treatment regime with the epothilone derivative in combination with Iloprost, O-acetyl salicylic acid or the combination thereof.
The tumor-inhibiting effect of, O-acetyl salicylic acid (ASS) and iloprost was investigated in the human B-52 NSCL cancer model, xenografted in nude mice.
B-52 tumor pieces obtained from in vivo passage, were implanted s.c. in the inguinal region of female nude mice. Treatment was started when the tumors were approximately 25 mm^2 in size. Tumor area was determined by caliper measurements twice weekly.
(§2) Tumor area was determined by caliper measurements.

[2] = test system: human B52 NSCLC cells xenografted to nude mice; settings: for effect on tumor growth (tumor area): 1st experiment
Method: as §1
B-52 tumor pieces obtained from in vivo passage, were implanted s.c. in the inguinal region of female nude mice. Treatment was started when the tumors were approximately 25 mM2 in size. Tumor area was determined by caliper measurements twice weekly.
as §2

Row | SMILES | effect on tumor growth (tumor area) [1] | effect on bodyweight ([1]; 2nd experiment) | effect on tumor growth (tumor area) ([2]; Iloprost 0.2 mg/kg i.v. 1x/day days 27-31, epothilone 7 or 10 mg/kg i.v. 1x day 29) | effect on tumor growth (tumor area) ([2]; epothilone at the highest dose of 10 mg/kg i.v. 1x day 29) | toxicity ([2]; mouse, in vivo, iv, 10 mg/kg)
1 | CC#CCC(C)[C@H](O)/C=C/[C@@H]1[C@H]2C/C(=C/CCCC(=O)O)C[C@H]2C[C@H]1O (stereo partly drawn) [Iloprost, ((E)-5-{(3aS,4R,5R,6aS)-5-Hydroxy-4-[(E)-(3S,4RS)-3-hydroxy)-4-methyl-1-octen-6-ynyl]perhydropentalen-2-ylidene}valeric acid] | no effects | no effect | no significant effect on tumor growth | – | –
2 | C=CC[C@H]1C(=O)C(C)(C)[C@@H](O)CC(=O)O[C@H](c2ccc3sc(C)nc3c2)C[C@@H]2O[C@]2(C)CCC[C@H](C)[C@@H]1O [epothilone, (1S,3S,7S,10R,11S,12S,16R)-7,11-dihydroxy-3-(2-methyl-benzothiazol-5-yl)-10-(prop-2-en-1-yl)-8,8,12,16-tetramethyl-4,17-dioxabicyclo[14.1.0]heptadecane-5,9-dione] | slightly reduced tumor growth; also recorded: effective in growth inhibiting | – | – | reduced tumor growth | proved to be toxic
